According to patent US8703791B2, “3-carboxypropyl-aminotetralin derivatives and related compounds as mu opioid receptor antagonists” (Theravance, Inc., priority 2007, dated 2014):
Read-outs that look alike come from different tables or passages of the source.

Experiments:
[1] = target: T1, human mu opioid receptor (Homo sapiens, UniProt P35372); assay: Human mu [35S]GTPγS nucleotide exchange assay in membranes from CHO-K1 cells; assay type: biochemical; conditions: read-out: intrinsic activity (IA), bound [35S]GTPγS relative to DAMGO (IA=100)
T1 sequence (P35372 whole entry): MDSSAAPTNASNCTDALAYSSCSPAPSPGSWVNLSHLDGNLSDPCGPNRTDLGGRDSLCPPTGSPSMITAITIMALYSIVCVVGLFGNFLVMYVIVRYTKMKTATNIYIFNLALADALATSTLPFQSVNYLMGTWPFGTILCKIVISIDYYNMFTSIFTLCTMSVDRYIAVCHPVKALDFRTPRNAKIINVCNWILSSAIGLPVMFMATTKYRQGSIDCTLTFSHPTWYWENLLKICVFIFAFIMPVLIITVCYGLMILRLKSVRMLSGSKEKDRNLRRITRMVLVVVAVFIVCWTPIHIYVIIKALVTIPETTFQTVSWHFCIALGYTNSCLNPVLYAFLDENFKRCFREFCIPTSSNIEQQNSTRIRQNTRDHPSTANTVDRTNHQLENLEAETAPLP

[2] = target: T1, human mu opioid receptor; assay: Radioligand binding assay, [3H]-Diprenorphine displacement, human mu opioid receptor
[3] = tested on: loperamide-induced delayed gastric emptying; assay: Rat gastric emptying assay, reversal of loperamide-induced delayed gastric emptying; assay type: in vivo; conditions: administered orally, loperamide 1 mg/kg subcutaneous
[4] = expressed as a percentage of activation by DAMGO

Structure (SMILES) | Emax [1, 4] | Ki ([2]; [3H]-Diprenorphine 0.5 nM, CHO-K1 membranes, read-out: pKi at the human mu opioid receptor (converted)) | Ki [2] | Emax [1] | ID50, dose required for 50% reversal of the effects of loperamide [3]
CCC1(CC)c2cc(C(N)=O)ccc2C[C@H](OC)[C@H]1NCC[C@H](CC1CCCCC1)C(=O)OC [Example 2, (S)-4-((2S,3S)-7-Carbamoyl-1,1-diethyl-3-methoxy-1,2,3,4-tetrahydro-naphthalen-2-ylamino)-2-cyclohexylmethyl-butyric acid methyl ester] | -5% | – | – | – | –
CCC1(CC)c2cc(C(N)=O)ccc2C[C@H](OC)[C@H]1NCC[C@@H](CC1CCCCC1)C(=O)O [Example 10-G, (R)-4-((2S,3S)-7-Carbamoyl-1,1-diethyl-3-methoxy-1,2,3,4-tetrahydro-naphthalen-2-ylamino)-2-cyclohexylmethyl-butyric acid] | – | – | 0.251 nM | 7% | 0.12 mg/kg
CCC1(CC)c2cc(O)ccc2C[C@H](OC)[C@H]1NCC[C@H](CC1CCCCC1)C(=O)O [Example 12, (S)-2-Cyclohexylmethyl-4-((2S,3S)-1,1-diethyl-7-hydroxy-3-methoxy-1,2,3,4-tetrahydro-naphthalen-2-ylamino)-butyric acid] | – | – | 0.2 nM | -5% | 0.05 mg/kg
CCC1(CC)c2cc(C(N)=O)ccc2C[C@H](OC)[C@H]1NCC[C@H](CC(C)C)C(=O)OC [Example 7-A, (S)-2-[2-((2S,3S)-7-Carbamoyl-1,1-diethyl-3-methoxy-1,2,3,4-tetrahydro-naphthalen-2-ylamino)-ethyl]-4-methyl-pentanoic acid methyl ester] | – | – | – | 8% | –
CCC1(CC)c2cc(C(N)=O)ccc2C[C@H](OC)[C@H]1NCC[C@H](CC1CCCCC1)C(=O)O [Example 1, (S)-4-((2S,3S)-7-Carbamoyl-1,1-diethyl-3-methoxy-1,2,3,4-tetrahydro-naphthalen-2-ylamino)-2-cyclohexylmethyl-butyric acid] | – | – | – | – | 0.09 mg/kg

Now from value to compound, other results behind:

Emax [1, 4] | Ki ([2]; [3H]-Diprenorphine 0.5 nM, CHO-K1 membranes, read-out: pKi at the human mu opioid receptor (converted)) | Structure (SMILES) | Ki [2] | Emax [1] | ID50, dose required for 50% reversal of the effects of loperamide [3]
-2% | 0.631 nM | CCCCC[C@@H](CCN[C@@H]1[C@@H](OC)Cc2ccc(C(N)=O)cc2C1(CC)CC)C(=O)O [Example 9, (S)-2-[2-((2S,3S)-7-Carbamoyl-1,1-diethyl-3-methoxy-1,2,3,4-tetrahydro-naphthalen-2-ylamino)-ethyl]-heptanoic acid] | – | – | 0.10 mg/kg
19% | – | CCC1(CC)c2cc(C(N)=O)ccc2CC(OC)[C@H]1NCC[C@@H](CC1CCCCC1)C(=O)OC (mixture of isomers) [Example 6, (R)-4-((2S,3SR)-7-Carbamoyl-1,1-diethyl-3-methoxy-1,2,3,4-tetrahydro-naphthalen-2-ylamino)-2-cyclohexylmethyl-butyric acid methyl ester] | – | – | –
17% | – | CCC1(CC)c2cc(C(N)=O)ccc2C[C@@H](OC)[C@@H]1NCC[C@@H](CC1CCCCC1)C(=O)OC [Example 5, (R)-4-((2R,3R)-7-Carbamoyl-1,1-diethyl-3-methoxy-1,2,3,4-tetrahydro-naphthalen-2-ylamino)-2-cyclohexylmethyl-butyric acid methyl ester] | – | – | –
